Experimental data taken from patent publication US20040248887A1, “Inhibitors of cathepsin S” (IRM LLC, priority 2003, published 2004).
pKi: −log10 of the molar value.

Biological target: Cathepsin S (Homo sapiens, UniProt P25774)
Assay: Cathepsin S inhibition, fluorogenic peptide substrate kinetic assay
Assay type: biochemical
Conditions: Table II; Cathepsin S inhibition constant, pH5.5; read-out: Ki Cat. S
How it was run: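 Ki values derive from apparent constants fitted to progress curves, corrected for competition with substrate via [S] and Km. Kinetics were monitored at 380 nm excitation/450 nm emission, after substrate addition (Ac-HPVK-ACC, 50 μM final) to start the reaction.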

Chain of Cathepsin S (P25774 115-331, species assumed): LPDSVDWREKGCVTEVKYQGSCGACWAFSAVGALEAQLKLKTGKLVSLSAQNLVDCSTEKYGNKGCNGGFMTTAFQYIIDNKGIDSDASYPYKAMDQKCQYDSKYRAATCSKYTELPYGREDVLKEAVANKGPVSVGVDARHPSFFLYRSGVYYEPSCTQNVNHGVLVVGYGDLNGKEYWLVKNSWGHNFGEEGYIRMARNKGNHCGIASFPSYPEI

| SMILES | pKi |
| --- | --- |
| COc1cccc(C(=O)N[C@@H](CCC2CCCCC2)C(=O)NCCN2CCc3cccc(F)c32)c1 [Compound 11, (S)-N-{3-Cyclohexyl-1-[2-(7-fluoro-2,3-dihydro-indol-1-yl)-ethylcarbamoyl]-propyl}-3-methoxy-benzamide] | > 5.00 |
| COc1ccc(NCC(C)NC(=O)C(CCC2CCCCC2)NC(=O)c2cc3ccccc3[nH]2)cc1 (mixture of isomers) [Compound 24] | > 6.00 |
| C[C@@H](CNc1ccc(OC(F)(F)F)cc1)NC(=O)[C@H](CC1CCCCC1)NC(=O)c1ccc(-c2cccnc2)o1 [Compound 143, 5-Pyridin-3-yl-furan-2-carboxylic acid {2-cyclohexyl-1-(S)-[1-(S)-methyl-2-(4-trifluoromethoxy-phenylamino)-ethylcarbamoyl]-ethyl}-amide] | > 7.00 |
| C[C@@H](CNc1ccc(OC(F)(F)F)cc1)NC(=O)[C@H](CC1CCCCC1)NC(=O)c1nc(-c2cccc(F)c2)no1 [Compound 108, 3-(3-Fluoro-phenyl)-[1,2,4]oxadiazole-5-carboxylic acid {2-cyclohexyl-1-(S)-[1-(S)-methyl-2-(4-trifluoromethoxy-phenylamino)-ethylcarbamoyl]-ethyl}-amide] | > 7.00 |
| COc1ccc(NC[C@H](C)NC(=O)[C@H](CCC2CCCCC2)NC(=O)c2ccc(-c3cccc(C(F)(F)F)c3)o2)cc1 [Compound 27, 5-(3-Trifluoromethyl-phenyl)-furan-2-carboxylic acid {3-cyclohexyl-(1S)-[2-(4-methoxy-phenylamino)-(1S)-methyl-ethylcarbamoyl]-propyl}-amide] | > 7.00 |
| CC(C)(C)C[C@H](NC(=O)c1ccc(-c2cccc(C(F)(F)F)c2)o1)C(=O)NCCN1CCc2cc(F)ccc21 [Compound 202, N-((S)-1-(2-(5-fluoroindolin-1-yl)ethylcarbamoyl)-3,3-dimethylbutyl)-5-(3-(trifluoromethyl)phenyl)furan-2-carboxamide] | > 7.00 |
| C[C@@H](CNc1ccc(OC(F)(F)F)cc1)NC(=O)[C@H](CC(C)(C)C)NC(=O)C1CCOCC1 [Compound 269, Tetrahydropyran-4-carboxylic acid {3,3-dimethyl-1-(S)-[1-(S)-methyl-2-(4-trifluoromethoxy-phenylamino)-ethylcarbamoyl]-butyl}-amide] | > 6.00 |
| Cc1cccc(S(=O)(=O)N[C@@H](CC(C)(C)C)C(=O)N[C@@H](CC(=O)OC(C)(C)C)CN2CCc3cc(F)ccc32)c1 [Compound 252, (S,S)-3-[4,4-Dimethyl-2-(toluene-3-sulfonylamino)-pentanoylamino]-4-(5-fluoro-2,3-dihydro-indol-1-yl)-butyric acid tert-butyl ester] | > 6.00 |
| C[C@@H](CNc1ccc(OCc2ccccc2)cc1)NC(=O)[C@H](CC1CCCCC1)NC(=O)c1ccc(-c2cccc(F)c2)o1 [Compound 266, 5-(3-Fluoro-phenyl)-furan-2-carboxylic acid {1-(S)-[2-(4-benzyloxy-phenylamino)-1-(S)-methyl-ethylcarbamoyl]-2-cyclohexyl-ethyl}-amide] | > 7.00 |
| O=C(N[C@@H](CC1CCCCC1)C(=O)N[C@@H](CO)CN1CCc2cc(F)ccc21)c1ccc(-c2cccc(C(F)(F)F)c2)o1 [Compound 153, 5-(3-Trifluoromethyl-phenyl)-furan-2-carboxylic acid {2-cyclohexyl-1-(S)-[2-(5-fluoro-2,3-dihydro-indol-1-yl)-1-(R)-hydroxymethyl-ethylcarbamoyl]-ethyl}-amide] | > 7.00 |
| C[C@@H](CNc1ccc(OC(F)(F)F)cc1)NC(=O)[C@H](CC1CCCCC1)NC(=O)c1ccc(-c2cccc(F)c2)o1 [Compound 83, 5-(3-Fluoro-phenyl)-furan-2-carboxylic acid {2-cyclohexyl-1-(S)-[1-(S)-methyl-2-(4-trifluoromethoxy-phenylamino)-ethylcarbamoyl]-ethyl}-amide] | > 7.00 |
| O=C(N[C@@H](CC1CCCCC1)C(=O)NCCN1CCc2cc(F)ccc21)c1csc(-c2ccccc2)n1 [Compound 76, 2-Phenyl-thiazole-4-carboxylic acid (S)-{2-cyclohexyl-1-[2-(5-fluoro-2,3-dihydro-indol-1-yl)-ethylcarbamoyl]-ethyl}-amide] | > 7.00 |
| COc1cccc(C(=O)N[C@@H](CCC2CCCCC2)C(=O)NCCN2CCc3c(OC)cccc32)c1 [Compound 15, (S)-N-{3-Cyclohexyl-1-[2-(4-methoxy-2,3-dihydro-indol-1-yl)-ethylcarbamoyl]-propyl}-3-methoxy-benzamide] | > 5.00 |
| C[C@@H](CNc1cc(F)ccc1Cl)NC(=O)[C@H](CC1CCCCC1)NC(=O)c1ccc(-c2cccc(F)c2)o1 [Compound 112, 5-(3-Fluoro-phenyl)-furan-2-carboxylic acid {1-(S)-[2-(2-chloro-5-fluoro-phenylamino)-1-(S)-methyl-ethylcarbamoyl]-2-cyclohexyl-ethyl}-amide] | > 6.00 |
| O=C(NCCN1CCc2cc(F)ccc21)[C@H](CC1CCCCC1)NS(=O)(=O)c1ccc(Oc2ccc(F)cc2)cc1 [Compound 236, (S)-3-Cyclohexyl-N-[2-(5-fluoro-2,3-dihydro-indol-1-yl)-ethyl]-2-[4-(4-fluoro-phenoxy)-benzenesulfonylamino]-propionamide] | > 6.00 |

The next lines start with the values.

| pKi | SMILES |
| --- | --- |
| > 7.00 | O=C(N[C@@H](CC1CCCCC1)C(=O)NCCN1CCc2cc(F)ccc21)c1ccoc1 [Compound 13, Furan-3-carboxylic acid (S)-{2-cyclohexyl-1-[2-(5-fluoro-2,3-dihydro-indol-1-yl)-ethylcarbamoyl]-ethyl}-amide] |
| > 7.00 | O=C(NC(C(=O)NC(CO)CN1CCc2cc(F)ccc21)c1ccc(Cl)cc1Cl)c1ccco1 [Compound 209, N-(S)-((3-(5-fluoroindolin-1-yl)-1-hydroxypropan-2-(R)-ylcarbamoyl)(2,4-dichlorophenyl)methyl)furan-2-carboxamide] |
| > 6.00 | O=C(NCCN1CCc2cc(F)ccc21)[C@H](CC1CCCCC1)NS(=O)(=O)c1ccc(OC(F)(F)F)cc1 [Compound 230, (S)-3-Cyclohexyl-N-[2-(5-fluoro-2,3-dihydro-indol-1-yl)-ethyl]-2-(4-trifluoromethoxy-benzenesulfonylamino)-propionamide] |
| > 7.00 | O=C(N[C@@H](CC1CCCCC1)C(=O)NCCN1CCc2cc(F)ccc21)c1ccc(Oc2ccccc2)cc1 [Compound 4, N-(S)-{2-cyclohexyl-1-[2-(5-fluoro-2,3-dihydro-indol-1-yl)-ethylcarbamoyl]-ethyl}-4-phenoxy-benzamide] |
| > 6.00 | CC(C)(C)C[C@H](NC(=O)OCc1ccccc1)C(=O)N[C@@H](CC(=O)OC(C)(C)C)CN1CCc2cc(F)ccc21 [Compound 158, 3-(S)-(2-(S)-Benzyloxycarbonylamino-4,4-dimethyl-pentanoylamino)-4-(5-fluoro-2,3-dihydro-indol-1-yl)-butyric acid tert-butyl ester] |
| > 6.00 | C[C@@H](CNc1ccc(OC(F)(F)F)cc1)NC(=O)[C@H](CC1CCCCC1)NC(=O)c1cc(-c2cccc(F)c2)no1 [Compound 145, 3-(3-Fluoro-phenyl)-isoxazole-5-carboxylic acid {2-cyclohexyl-1-(S)-[1-(S)-methyl-2-(4-trifluoromethoxy-phenylamino)-ethylcarbamoyl]-ethyl}-amide] |
| > 7.00 | COc1cc(COC[C@@H](CN2CCc3cc(F)ccc32)NC(=O)[C@H](CCC2CCCCC2)NC(=O)c2cccc(OC)c2)cc(OC)c1 [Compound 170, N-{3-Cyclohexyl-1-(S)-[2-(3,5-dimethoxy-benzyloxy)-1-(R)-(5-fluoro-2,3-dihydro-indol-1-ylmethyl)-ethylcarbamoyl]-propyl}-3-methoxy-benzamide] |
| > 7.00 | C[C@@H](CNc1ccc(OC(F)(F)F)cc1)NC(=O)[C@H](CC1CCCCC1)NC(=O)C1CCOC1 (mixture of isomers) [Compound 272, Tetrahydrofuran-3-(R,S)-carboxylic acid {2-cyclohexyl-1-(S)-[1-(S)-methyl-2-(4-trifluoromethoxy-phenylamino)-ethylcarbamoyl]-ethyl}-amide] |
| > 6.00 | COc1cccc(C(=O)N[C@@H](CCC2CCCCC2)C(=O)N[C@@H](CCCCNC(=O)OCc2ccccc2)CN2CCc3cc(F)ccc32)c1 [Compound 55, (S,S)-[5-[4-Cyclohexyl-2-(3-methoxy-benzoylamino)-butyrylamino]-6-(5-fluoro-2,3-dihydro-indol-1-yl)-hexyl]-carbamic acid benzyl ester] |
| > 6.00 | O=C(NCCN1CCc2cc(F)ccc21)[C@H](CC1CCCCC1)NS(=O)(=O)c1ccc(C(F)(F)F)cc1 [Compound 229, (S)-3-Cyclohexyl-N-[2-(5-fluoro-2,3-dihydro-indol-1-yl)-ethyl]-2-(4-trifluoromethyl-benzenesulfonylamino)-propionamide] |
| > 7.00 | COc1cccc(C(=O)N[C@@H](CC2CCCCC2)C(=O)N[C@@H](CC(=O)O)CN2CCc3cc(F)ccc32)c1 [Compound 162, 3-(S)-[3-Cyclohexyl-2-(S)-(3-methoxy-benzoylamino)-propionylamino]-4-(5-fluoro-2,3-dihydro-indol-1-yl)-butyric acid] |
| > 6.00 | O=C(N[C@@H](CC1CC1)C(=O)NCCN1CCc2cc(F)ccc21)c1ccc(-c2cccc(C(F)(F)F)c2)o1 [Compound 194, N-((S)-1-(2-(5-fluoroindolin-1-yl)ethylcarbamoyl)-2-cyclopropylethyl)-5-(3-(trifluoromethyl)phenyl)furan-2-carboxamide] |
| > 7.00 | C[C@@H](CNc1cccc(Cl)c1)NC(=O)[C@H](CC1CCCCC1)NC(=O)c1ccc(-c2cccc(F)c2)o1 [Compound 94, 5-(3-Fluoro-phenyl)-fuiran-2-carboxylic acid {1-(S)-[2-(3-chloro-phenylamino)-1-(S)-methyl-ethylcarbamoyl]-2-cyclohexyl-ethyl}-amide] |
| > 7.00 | C[C@@H](CNc1ccc(OC(F)(F)F)cc1)NC(=O)[C@H](CC1CCCCC1)NS(=O)(=O)c1cccnc1 [Compound 183, (S,S)-3-Cyclohexyl-N-[1-methyl-2-(4-trifluoromethoxy-phenylamino)-ethyl]-2-(pyridine-3-sulfonylamino)-propionamide] |
